pIC50: −log10 of the molar value.
Key:
Type in all cases: biochemical
[1] = biological target: T1, PtVDE (Phaeodactylum tricornutum, UniProt B7FUR6); test: HPLC de-epoxidase assay, dose-response
T1 construct: gene VDE
T1 sequence (B7FUR6 105-437): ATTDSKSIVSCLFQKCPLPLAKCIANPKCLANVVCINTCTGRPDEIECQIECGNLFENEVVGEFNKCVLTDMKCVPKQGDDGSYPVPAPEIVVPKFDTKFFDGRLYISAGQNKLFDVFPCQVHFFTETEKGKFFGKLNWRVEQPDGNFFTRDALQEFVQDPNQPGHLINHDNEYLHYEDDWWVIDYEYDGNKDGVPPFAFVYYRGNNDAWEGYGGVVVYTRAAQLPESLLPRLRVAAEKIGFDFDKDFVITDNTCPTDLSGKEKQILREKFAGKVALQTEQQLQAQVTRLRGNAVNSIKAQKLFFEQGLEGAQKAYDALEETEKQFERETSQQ

[2] = biological target: T2, PtVDL1 (Phaeodactylum tricornutum, UniProt B7G087); test: HPLC tautomerase assay, dose-response
T2 construct: gene VDL1
T2 sequence (B7G087 112-453): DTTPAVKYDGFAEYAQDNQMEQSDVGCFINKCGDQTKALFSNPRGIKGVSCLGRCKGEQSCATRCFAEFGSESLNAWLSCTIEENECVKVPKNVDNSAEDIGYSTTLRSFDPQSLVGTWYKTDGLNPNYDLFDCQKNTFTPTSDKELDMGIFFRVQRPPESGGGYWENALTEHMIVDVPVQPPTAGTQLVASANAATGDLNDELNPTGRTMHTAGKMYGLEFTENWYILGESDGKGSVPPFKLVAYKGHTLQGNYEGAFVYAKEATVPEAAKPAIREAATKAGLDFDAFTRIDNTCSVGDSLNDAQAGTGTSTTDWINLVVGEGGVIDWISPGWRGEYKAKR

[3] = biological target: T3, VDL1 from T. pseudonana (Thalassiosira pseudonana, UniProt B8C0W7); test: HPLC, conversion of violaxanthin to neoxanthin; conditions: pH 5.2, 20 °C, MGDG, 3 h
T3 construct: gene THAPSDRAFT_22076
T3 sequence (B8C0W7 103-423): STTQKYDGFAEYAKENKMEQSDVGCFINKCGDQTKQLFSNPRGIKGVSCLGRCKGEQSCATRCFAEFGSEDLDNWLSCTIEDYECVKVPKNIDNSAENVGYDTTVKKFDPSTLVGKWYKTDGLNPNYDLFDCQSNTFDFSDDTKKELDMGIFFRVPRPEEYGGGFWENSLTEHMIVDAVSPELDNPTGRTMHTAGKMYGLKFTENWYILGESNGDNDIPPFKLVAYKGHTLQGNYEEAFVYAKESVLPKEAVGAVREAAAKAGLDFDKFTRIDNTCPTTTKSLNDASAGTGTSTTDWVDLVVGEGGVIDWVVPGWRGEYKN

| SMILES | pIC50 [1] | pIC50 [2] | HPLC, conversion of violaxanthin to neoxanthin [3] |
| --- | --- | --- | --- |
| OC(CS)C(O)CS (stereo not drawn) [DTT] | 3.17 | 1.14 |  |
| CC(/C=C/C=C(C)/C=C/[C@@]12O[C@]1(C)C[C@@H](O)CC2(C)C)=C\C=C\C=C(C)\C=C\C=C(C)\C=C\[C@@]12O[C@]1(C)C[C@@H](O)CC2(C)C [violaxanthin] |  |  | also showed violaxanthin-neoxanthin tautomerase activity in vitro |
